Laboratory results from publication PMC8083904 (ACS infectious diseases, 2020).

Columns and labels:
MEZ (Mtb malic enzyme) [1] = target: T1, MEZ (Mtb malic enzyme) (Mycobacterium tuberculosis, UniProt P9WK25); conditions: read-out: Km or K0.5
MEZ (Mtb malic enzyme) [2] = target: T1, MEZ (Mtb malic enzyme)
MEZ (Mtb malic enzyme) [3] = target: T1, MEZ (Mtb malic enzyme); remark: listed apart in the source

T1 sequence (P9WK25 whole entry): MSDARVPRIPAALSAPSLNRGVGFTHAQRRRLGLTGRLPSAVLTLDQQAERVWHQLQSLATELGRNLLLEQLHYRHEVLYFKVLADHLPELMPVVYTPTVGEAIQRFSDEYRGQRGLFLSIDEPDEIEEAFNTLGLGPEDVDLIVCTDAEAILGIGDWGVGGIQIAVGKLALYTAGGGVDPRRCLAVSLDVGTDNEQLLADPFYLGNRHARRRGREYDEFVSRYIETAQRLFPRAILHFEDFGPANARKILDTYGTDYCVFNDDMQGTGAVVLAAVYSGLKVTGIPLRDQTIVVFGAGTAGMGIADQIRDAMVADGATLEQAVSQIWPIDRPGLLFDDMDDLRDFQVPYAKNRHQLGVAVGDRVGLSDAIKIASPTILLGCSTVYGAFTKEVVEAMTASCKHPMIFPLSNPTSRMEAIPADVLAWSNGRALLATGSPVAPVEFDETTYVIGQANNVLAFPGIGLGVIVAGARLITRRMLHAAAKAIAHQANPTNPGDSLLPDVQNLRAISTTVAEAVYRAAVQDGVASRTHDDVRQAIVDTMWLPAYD

Structure (SMILES) | % activity of unmodified control (activation) (MEZ (Mtb malic enzyme) [2]) | further results
O=C(O)C[C@H](O)C(=O)O [L-malate] | – | Km (MEZ (Mtb malic enzyme) [1]): 18.7 ± 0.5 mM
N[C@@H](CC(=O)O)C(=O)O [aspartate] | aspartate induced a smaller increase in activity, Figure 3A | –
O=C(O)/C=C/C(=O)O [fumarate] | 361% | –
O=C(O)CC(=O)C(=O)O [oxaloacetate] | – | % activity of control (inhibition) (MEZ (Mtb malic enzyme) [3]): 61%
O=C(O)CCC(=O)O [succinate] | 290% | –
